Assay results as given in patent publication US20160205931A1, “SEX PHEROMONE DERIVATIVES, AND METHODS AND USES THEREOF” (Her Majesty the Queen in Right of Canada, as rep. by the …, priority 2015, published 2016).

Experiments:
[1] = tested on: male and female EAB antennae; test: Electroantennography (EAG), puff technique; set-up: species or system Agrilus planipennis; settings: for electroantennogram activity with male or female EABs: compared with controls / with the (3Z)- and (3E)-lactones
Protocol: Electroantennogram analyses (EAG) were conducted using methods and equipment generally described by Silk et al. in 2007 (Silk P J, et al (2007) Evidence for a male-produced pheromone in Tetropium fuscum (F.) (Coleoptera: Cerambycidae). Naturwissenschaften 94: 697-701). Antennae were excised close to the head and mounted using electrode gel (Spectra 360 electrode gel; Parker, Fairfield, N.J., USA) on an EAG probe (gold) for electrical contact. EAG signals were recorded using Syntech recording and analysis software v. 2.6 (Syntech, Hilversum, The Netherlands).
The (3Z)- and (3E)-lactones, and dodecan-12-olide were tested using the puff technique described by Silk et al. in 2011 (Silk P J, Ryall K, Mayo P, Lemay M, Grant G, Crook D, Cossé A, Fraser I, Sweeney J D, Lyons D B, Pitt D, Scarr T, Magee D (2011) Evidence for a volatile pheromone in Agrilus planipennis Fairmaire (Coleoptera: Buprestidae) that increases attraction to a host foliar volatile. Env Entomol 40: 904-916). Briefly: two microliters of serially diluted solutions (dichloromethane; DCM) of synthetic compounds were applied to filter paper strips (0.5 cm×5 cm, Whatman No. 1). The filter paper strips were placed in 14 cm long Pasteur pipettes, hereafter referred to as stimulus cartridges, after 5 min at room temperature. The stimulus dose tested was 1 μg. Male and female antennae were exposed to single 0.2 s puffs of odor-bearing air at 5 ml/s by placing the tip of a stimulus cartridge into a hole of a glass tube (0.7 cm ID×20 cm), 10 cm from the outlet and 11 cm away from the antennal preparation. Airflow through the glass tube was passed through a water bubbler and set at 10 ml/s. Each antennal preparation was tested with freshly prepared sets of stimuli cartridges using ˜6 male and ˜10 female antennae/treatment and used once for each treatment.
(§1) For the EAG results, male and female EAG responses were submitted to analysis of variance (ANOVA) and mean responses to each of the tested compounds separated using Tukey's test (P<0.05). […] Finally, in the trapping study, numbers of male and female EAB captured among the three treatments were analyzed separately by fitting generalized linear mixed effect models, with block as a random factor, to the Poisson distribution (GLMER function, R Development Core Team 2013). Chi-square tests were used to determine if a significant proportion of the variation in capture of male and female EAB was attributable to treatment. Chi-square tests were considered significant at P=0.05 or less and, if significant, the means separated using the Tukey's contrast option in the GLHT function (R Development Core Team 2013); raw data are presented as means±standard error.

[2] = tested on: adult EAB; test: Two-choice Y-tube olfactometer bioassay; type: in vivo, Agrilus planipennis; settings: 1 μg stimulus
Protocol: A Y-tube olfactometer (Analytical Research Systems Inc, Micanopy, Fla., USA) was used to test for short-range attraction of adult EAB to the lactones. […] Each arm was connected to a cylinder that contained the stimulus. Charcoal-filtered air was passed into each arm at a flow rate of 1.2 L/min. Treatments were 1 μg each of (3Z)-lactone, (3E)-lactone, and dodecan-12-olide. Each stimulus was diluted in dichloromethane, placed on a strip of filter paper, and given 1 min for the solvent to evaporate before being placed in the olfactometer. A filter paper with only solvent (control) was placed in the other arm of the olfactometer. The apparatus was rinsed with acetone after each treatment, and the arm attached to the test stimulus was randomized between replicates. For each trial, a single EAB (male or female) was given 10 min to choose between the two stimuli. A choice was recorded when the beetle passed a “finish line”, 7 cm beyond the branching point of each arm. […] Beetles were 8-14 d old, and 18-23 beetles were used per treatment.
as §1

[3] = Release rate of lures; type: physicochemical; settings: 25° C.
Protocol: Traps were baited with one of three treatments: 1) (3Z)-hexenol alone; 2) 3.0 mg dose of (3Z)-lactone+(3Z)-hexenol; or 3) dodecan-12-olide+(3Z)-hexenol. The dodecan-12-olide dose was 3.0 mg or 5.0 mg. A higher dose of the analog was used to attempt to increase its effect on captures of EAB relative to the (3Z)-lactone. (3Z)-Lactone and the analog were each loaded onto rubber septa lures (Wheaton Scientific, Millville, N.J.). (3Z)-Hexenol lures were obtained from Synergy Semiochemicals. Release rates of the 3.0 mg (3Z)-lactone, 3.0 mg and 5.0 mg dodecan-12-olide lures, and (3Z)-hexenol were ˜66 μg/d, ˜60 μg/d and ˜80 μg/d. These values were determined as in Silk et al. 2011, and 50-100 mg/d (by weight loss), respectively, at 25° C. The (3Z)-lactone and analog lures were estimated to maintain sustained and almost constant release rates for a minimum of 6 wk, and thus were not replaced during the experiment. Similarly, (3Z)-hexenol lures were not replaced during the experiment.

[4] = tested on: EAB; test: Field trapping studies, dark green sticky prism traps co-baited with (3Z)-hexenol; type: in vivo, Agrilus planipennis
Protocol: Three trapping experiments were conducted to test the effects of (3Z)-lactone and dodecan-12-olide on mean captures of EAB on dark green sticky prism traps using protocols discussed by Francese et al. in 2010 (Francese J A, Crook D J, Fraser I, Lance D A, A. J. Sawyer A J, Mastro V C (2010a) Optimization of trap color for the emerald ash borer, Agrilus planipennis (Coleoptera: Buprestidae). J Econ Entomol 103: 1235-1241) co-baited with (3Z)-hexenol. Urban street trees were used: trees were 20-40 cm in diameter, and 10-16 m in height. […] Dark green prism sticky traps (0.30×25.00×58.75 cm) (Synergy Semiochemicals Corp., Burnaby, British Columbia) were used in all field trials. Traps were spaced˜25 m apart, and lure treatments replicated in a randomized complete block design. Traps were deployed using either a limb hook over a lower to mid-canopy branch or a single rope over a mid-canopy branch. In both years, traps were checked every 2 wk and all EAB were collected, counted, and sexed.
Traps were baited with one of three treatments: 1) (3Z)-hexenol alone; 2) 3.0 mg dose of (3Z)-lactone+(3Z)-hexenol; or 3) dodecan-12-olide+(3Z)-hexenol. The dodecan-12-olide dose was 3.0 mg or 5.0 mg. A higher dose of the analog was used to attempt to increase its effect on captures of EAB relative to the (3Z)-lactone. (3Z)-Lactone and the analog were each loaded onto rubber septa lures (Wheaton Scientific, Millville, N.J.). (3Z)-Hexenol lures were obtained from Synergy Semiochemicals. […] These values were determined as in Silk et al. 2011, and 50-100 mg/d (by weight loss), respectively, at 25° C. […]
For the EAG results, male and female EAG responses were submitted to analysis of variance (ANOVA) and mean responses to each of the tested compounds separated using Tukey's test (P<0.05). […] Finally, in the trapping study, numbers of male and female EAB captured among the three treatments were analyzed separately by fitting generalized linear mixed effect models, with block as a random factor, to the Poisson distribution (GLMER function, R Development Core Team 2013). […]

O=C1/C=C/CCCCCCCCCO1 [2E-dodecan-12-olide]
electroantennogram activity with male or female EABs [1]: not significantly different from the controls

O=C1C/C=C/CCCCCCCCO1 [(3E)-lactone, (3E)-dodecen-12-olide, reference compound]
electroantennogram activity with male or female EABs [1]: active
proportion of the beetles that chose the stimulus arm ([2]; about 25% chose the control, no-choice beetles excluded, sex not given): about 75%

CC/C=C\CCO [(3Z)-hexenol, reference compound]
release rate of lure ([3]; by weight loss): 50000 to 100000 µg/day

O=C1C/C=C\CCCCCCCCO1 [(3Z)-lactone, (3Z)-dodecen-12-olide, reference compound]
electroantennogram activity with male or female EABs [1]: active

O=C1CCCCCCCCCCCO1 [dodecan-12-olide]
mean EAG responses of male and female EAB antennae ([1]; 1 μg source concentration, vs solvent control (dichloromethane), responses to the three compounds not significantly different from each other (Tukey's), FIG. 4): significantly greater than those to the solvent control
electroantennogram activity with male or female EABs [1]: comparable to the corresponding electroantennogram activity both the natural (3Z)-lactone and the (3E)-lactone analog
attraction of female EAB to stimulus vs solvent control ([2]; females, 10 min choice, chi-square vs 1:1, FIG. 6): attracted
attraction of male EAB to stimulus vs solvent control ([2]; males, 10 min choice, chi-square vs 1:1, FIG. 5): attracted
females captured vs the other two treatments ([4]; FIG. 7a, 3 mg per lure, co-baited with (3Z)-hexenol): significantly more females were captured
females captured vs (3Z)-hexenol alone ([4]; FIG. 7b, dodecan-12-olide 5 mg, (3Z)-lactone 3 mg per lure, P<0.01): more females were captured
activity relative to the natural (3Z)-lactone under comparable conditions ([4]; field trial, 3 mg per lure, male captures): about 85%
release rate of lure ([3]; 3.0 mg on rubber septa lure): ~60 µg/day
release rate of lure ([3]; 5.0 mg on rubber septa lure): ~80 µg/day

O=C1CCCCCCCCCCCCCCO1 [pentadecan-15-olide, reference compound]
electroantennogram activity with male or female EABs [1]: not significantly different from the controls
